Measured values as given in patent publication US20050060764A1, “Mouse model for bone metabolism” (priority 2003, published 2005).
Strand notation (5' to 3'): a small letter for the sugar, then the base; units joined by * are phosphorothioate-linked, units joined directly phosphodiester-linked; [ ] holds rarer units or linkages, { } end groups; capitals alone tell only the bases. e = 2'-O-(2-methoxyethyl) (MOE); [5mC] = 5-methylcytosine; d = 2'-deoxy (DNA)

test system: rat RANKL mRNA; assay: Antisense inhibition of rat RANKL mRNA levels in UMR-106 cells, quantitative real-time PCR (Table 3); type: cell-based; set-up: concentration or dose not given beside the values; settings: averages from three experiments
Summary of the method: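 UMR-106 cells transfected with antisense oligonucleotides (5-methylcytidine throughout) in triplicate, harvested 16-24 h after treatment. RANKL mRNA quantified by real-time RT-PCR with a FAM/TAMRA probe, using rat GAPDH (JOE/TAMRA probe) as the reference.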

Row | Substance | % INHIB (inhibition of rat RANKL mRNA levels)
1 | 286610 (antisense eA*e[5mC]*eT*eT*eT*dA*dT*dG*dG*dG*dA*dA*d[5mC]*d[5mC]*d[5mC]*eG*eA*eT*eG*eG) [compound 286610] | 34%
2 | aacctgtattttcacggagt (eA*eA*e[5mC]*e[5mC]*eT*dG*dT*dA*dT*dT*dT*dT*d[5mC]*dA*d[5mC]*eG*eG*eA*eG*eT; antisense) [ISIS 286602, 2′-MOE gapmer targeted to rat RANKL] | at least 40%
3 | 286634 (antisense eA*eA*eT*eT*e[5mC]*dA*dG*dA*dA*dT*dT*d[5mC]*d[5mC]*d[5mC]*dT*eG*eA*e[5mC]*e[5mC]*eA) [compound 286634] | 21%
4 | 286607 (antisense eT*eG*eT*eG*eG*d[5mC]*d[5mC]*d[5mC]*d[5mC]*dA*d[5mC]*dA*dA*dT*dG*eT*eG*eT*eT*eG) [compound 286607] | 48%
5 | 286595 (antisense eT*eA*eG*eG*eA*dT*d[5mC]*d[5mC]*dA*dT*d[5mC]*dT*dG*d[5mC]*dG*e[5mC]*eT*e[5mC]*eG*eA) [compound 286595] | 46%
6 | 286596 (antisense eT*e[5mC]*eT*eG*eT*dT*dA*dG*dG*dA*dT*d[5mC]*d[5mC]*dA*dT*e[5mC]*eT*eG*e[5mC]*eG) [compound 286596] | 58%
7 | 286621 (antisense eA*eA*eG*e[5mC]*e[5mC]*dA*dT*d[5mC]*dT*dT*dG*dG*dT*dT*dA*eA*e[5mC]*e[5mC]*e[5mC]*eT) [compound 286621] | 33%
8 | 286632 (antisense e[5mC]*eT*eT*eG*eG*dG*dA*dT*dT*dT*dT*dG*dA*dT*dG*e[5mC]*eT*eG*eG*eT) [compound 286632] | 51%
9 | 286648 (antisense e[5mC]*e[5mC]*eA*eT*eT*dG*dT*dG*dT*dG*dA*dT*d[5mC]*dA*d[5mC]*e[5mC]*eA*eT*eG*eA) [compound 286648] | 72%
10 | 286601 (antisense eT*e[5mC]*eA*e[5mC]*eG*dG*dA*dG*dT*d[5mC]*dT*d[5mC]*dA*dG*dA*eA*eT*eT*e[5mC]*eT) [compound 286601] | 63%
11 | 286635 (antisense eT*eA*eA*eA*eA*dG*dT*dG*dG*dA*dA*dT*dT*d[5mC]*dA*eG*eA*eA*eT*eT) [compound 286635] | 11%
12 | 286609 (antisense eG*e[5mC]*eA*eG*e[5mC]*dA*dT*dT*dG*dA*dT*dG*dG*dT*dG*eA*eG*eG*eT*eG) [compound 286609] | 17%
13 | gcatatccatgctaaggctc (eG*e[5mC]*eA*eT*eA*dT*d[5mC]*d[5mC]*dA*dT*dG*d[5mC]*dT*dA*dA*eG*eG*e[5mC]*eT*e[5mC]; antisense) [ISIS 286643, 2′-MOE gapmer targeted to rat RANKL] | at least 40%
14 | 286592 (antisense e[5mC]*eT*e[5mC]*eG*eA*dA*dA*dG*dT*dA*d[5mC]*dA*dG*dG*dA*eA*e[5mC]*eA*eG*eA) [compound 286592] | 16%
15 | cccaaagtacgtcgcatctt (e[5mC]*e[5mC]*e[5mC]*eA*eA*dA*dG*dT*dA*d[5mC]*dG*dT*d[5mC]*dG*d[5mC]*eA*eT*e[5mC]*eT*eT; antisense) [ISIS 286639, 2′-MOE gapmer targeted to rat RANKL] | at least 40%
16 | 286594 (antisense eT*e[5mC]*e[5mC]*eA*eT*d[5mC]*dT*dG*d[5mC]*dG*d[5mC]*dT*d[5mC]*dG*dA*eA*eA*eG*eT*eA) [compound 286594] | 35%
17 | accatcagctgaagatagtc (eA*e[5mC]*e[5mC]*eA*eT*d[5mC]*dA*dG*d[5mC]*dT*dG*dA*dA*dG*dA*eT*eA*eG*eT*e[5mC]; antisense) [ISIS 286629, 2′-MOE gapmer targeted to rat RANKL] | at least 40%
18 | 286611 (antisense eA*eG*eA*eG*eG*dA*d[5mC]*dA*dG*dA*d[5mC]*dT*dG*dA*d[5mC]*eT*eT*eT*eA*eT) [compound 286611] | 47%
19 | 286643 (antisense eG*e[5mC]*eA*eT*eA*dT*d[5mC]*d[5mC]*dA*dT*dG*d[5mC]*dT*dA*dA*eG*eG*e[5mC]*eT*e[5mC]) [compound 286643] | 69%

Row | Substance | % INHIB (inhibition of rat RANKL mRNA levels)
20 | agtcgagtcctgcaaacctg (eA*eG*eT*e[5mC]*eG*dA*dG*dT*d[5mC]*d[5mC]*dT*dG*d[5mC]*dA*dA*eA*e[5mC]*e[5mC]*eT*eG; antisense) [ISIS 286603, 2′-MOE gapmer targeted to rat RANKL] | at least 40%
21 | 286598 (antisense e[5mC]*eT*eT*e[5mC]*eT*dG*dA*dT*dA*dT*dT*d[5mC]*dT*dG*dT*eT*eA*eG*eG*eA) [compound 286598] | 6%
22 | ttttaacgacatataccatc (eT*eT*eT*eT*eA*dA*d[5mC]*dG*dA*d[5mC]*dA*dT*dA*dT*dA*e[5mC]*e[5mC]*eA*eT*e[5mC]; antisense) [ISIS 286630, 2′-MOE gapmer targeted to rat RANKL] | at least 40%
23 | atcttggcccagcctcgatc (eA*eT*e[5mC]*eT*eT*dG*dG*d[5mC]*d[5mC]*d[5mC]*dA*dG*d[5mC]*d[5mC]*dT*e[5mC]*eG*eA*eT*e[5mC]; antisense) [ISIS 286614, 2′-MOE gapmer targeted to rat RANKL] | at least 40%
24 | gcgcaggtacttgccgtagt (antisense eG*e[5mC]*eG*e[5mC]*eA*dG*dG*dT*dA*d[5mC]*dT*dT*dG*d[5mC]*d[5mC]*eG*eT*eA*eG*eT) [ISIS 286587, 2′-MOE gapmer targeted to rat RANKL] | at least 40%
25 | 286637 (antisense e[5mC]*eG*e[5mC]*eA*eT*d[5mC]*dT*dT*dG*dA*dT*d[5mC]*d[5mC]*dG*dG*eA*eT*e[5mC]*e[5mC]*eA) [compound 286637] | 27%
26 | 286606 (antisense eT*eG*eT*eA*eA*dT*dT*d[5mC]*d[5mC]*d[5mC]*dT*dT*dT*dG*d[5mC]*eA*e[5mC]*eG*eG*e[5mC]) [compound 286606] | 37%
27 | tttgcacggccccttgaaag (eT*eT*eT*eG*e[5mC]*dA*d[5mC]*dG*dG*d[5mC]*d[5mC]*d[5mC]*d[5mC]*dT*dT*eG*eA*eA*eA*eG; antisense) [ISIS 286605, 2′-MOE gapmer targeted to rat RANKL] | at least 40%
28 | 286630 (antisense eT*eT*eT*eT*eA*dA*d[5mC]*dG*dA*d[5mC]*dA*dT*dA*dT*dA*e[5mC]*e[5mC]*eA*eT*e[5mC]) [compound 286630] | 44%
29 | ctctgcaatgtaacggtacc (e[5mC]*eT*e[5mC]*eT*eG*d[5mC]*dA*dA*dT*dG*dT*dA*dA*d[5mC]*dG*eG*eT*eA*e[5mC]*e[5mC]; antisense) [ISIS 286652, 2′-MOE gapmer targeted to rat RANKL] | at least 40%
30 | 286639 (antisense e[5mC]*e[5mC]*e[5mC]*eA*eA*dA*dG*dT*dA*d[5mC]*dG*dT*d[5mC]*dG*d[5mC]*eA*eT*e[5mC]*eT*eT) [compound 286639] | 48%
31 | 286647 (antisense eG*eA*e[5mC]*e[5mC]*eT*dG*dT*dA*d[5mC]*dA*dG*dG*dG*dT*d[5mC]*eG*eA*eG*eA*eG) [compound 286647] | 53%
32 | gacctgtacagggtcgagag (eG*eA*e[5mC]*e[5mC]*eT*dG*dT*dA*d[5mC]*dA*dG*dG*dG*dT*d[5mC]*eG*eA*eG*eA*eG; antisense) [ISIS 286647, 2′-MOE gapmer targeted to rat RANKL] | at least 40%
33 | 286626 (antisense eT*eG*eT*eT*eG*dG*d[5mC]*dG*dT*dA*d[5mC]*dA*dG*dG*dT*eA*eA*eT*eA*eG) [compound 286626] | 41%
34 | gcgtacaggtaatagaagcc (eG*e[5mC]*eG*eT*eA*d[5mC]*dA*dG*dG*dT*dA*dA*dT*dA*dG*eA*eA*eG*e[5mC]*e[5mC]; antisense) [ISIS 286625, 2′-MOE gapmer targeted to rat RANKL] | at least 40%
35 | acttatttgcaggttccagc (eA*e[5mC]*eT*eT*eA*dT*dT*dT*dG*d[5mC]*dA*dG*dG*dT*dT*e[5mC]*e[5mC]*eA*eG*e[5mC]; antisense) [ISIS 286654, 2′-MOE gapmer targeted to rat RANKL] | at least 40%
36 | 286615 (antisense eT*eA*eG*eA*eG*dA*dT*d[5mC]*dT*dT*dG*dG*d[5mC]*d[5mC]*d[5mC]*eA*eG*e[5mC]*e[5mC]*eT) [compound 286615] | 45%
37 | acagagcgatgctgcagacc (antisense eA*e[5mC]*eA*eG*eA*dG*d[5mC]*dG*dA*dT*dG*d[5mC]*dT*dG*d[5mC]*eA*eG*eA*e[5mC]*e[5mC]) [ISIS 286589, 2′-MOE gapmer targeted to rat RANKL] | at least 40%
38 | caggaacagagcgatgctgc (e[5mC]*eA*eG*eG*eA*dA*d[5mC]*dA*dG*dA*dG*d[5mC]*dG*dA*dT*eG*e[5mC]*eT*eG*e[5mC]; antisense) [ISIS 286590, 2′-MOE gapmer targeted to rat RANKL] | at least 40%
